Test results as given in US20070287738A1, “Substituted Cyanopyridines as protein kinase inhibitors” (priority 2006, published 2007).

Target: T1, purified recombinant full length PKC theta (Panvera, P2996) (Homo sapiens, UniProt Q04759)
T1 construct: purified recombinant full length PKC theta (Panvera, P2996); purchased Panvera P2996
Experiment: Radioactive kinase assay for inhibition of full length (FL) PKCθ
Assay type: biochemical
Conditions: full length enzyme; radioactive (ATP γ P33) assay; average value
Protocol: (§1) This assay is based on the phosphorylation of a biotinylated substrate by a kinase utilizing radiolabeled ATP (ATP γ P33). The substrate was a biotinylated peptide with a sequence of biotin-FARKGSLRQ-C(O)NH2. The enzyme was purified recombinant active kinase domain of full length PKC theta (amino acids 362-706). The assay buffer was composed of 100 mM Hepes, pH7.5, 2 mM MgCl2, 20 mM β-glycerophosphate and 0.008% TritonX 100. A reaction mixture of ATP, ATP γ P33 (PerkinElmer), DTT, and the enzyme was prepared in the assay buffer and added to a 96-well polypropylene plate. The compound (diluted in DMSO in a separate 96-well polypropylene plate) was added to the reaction mixture and incubated at room temperature. Following the incubation, the peptide substrate was added to the reaction mixture to initiate the enzymatic reaction. The reaction was terminated with the addition of a stop solution (100 mM EDTA, 0.2% TritonX100, and 20 mM NaHPO4) and transferred from the assay plate to a washed streptavidin-coated 96-well scintiplate (PerkinElmer). The scintiplate was incubated at room temperature, washed in PBS with 0.1% TritonX 100, and counted in the 1450 Microbeta Trilux (Wallac, Version 2.60). Counts were recorded for each well as corrected counts per minute (CCPM). The counts were considered corrected because they were adjusted according to a P33 normalization protocol, which corrects for efficiency and background differences between the instrument detectors (software version 4.40.01).
A Radioactive Kinase Assay for Inhibition of Full Length (FL) PKCθ Inhibitors
This assay differs from what was described above in that the enzyme used was purified recombinant full length PKC theta (Panvera, P2996).

T1 sequence (Q04759 whole entry): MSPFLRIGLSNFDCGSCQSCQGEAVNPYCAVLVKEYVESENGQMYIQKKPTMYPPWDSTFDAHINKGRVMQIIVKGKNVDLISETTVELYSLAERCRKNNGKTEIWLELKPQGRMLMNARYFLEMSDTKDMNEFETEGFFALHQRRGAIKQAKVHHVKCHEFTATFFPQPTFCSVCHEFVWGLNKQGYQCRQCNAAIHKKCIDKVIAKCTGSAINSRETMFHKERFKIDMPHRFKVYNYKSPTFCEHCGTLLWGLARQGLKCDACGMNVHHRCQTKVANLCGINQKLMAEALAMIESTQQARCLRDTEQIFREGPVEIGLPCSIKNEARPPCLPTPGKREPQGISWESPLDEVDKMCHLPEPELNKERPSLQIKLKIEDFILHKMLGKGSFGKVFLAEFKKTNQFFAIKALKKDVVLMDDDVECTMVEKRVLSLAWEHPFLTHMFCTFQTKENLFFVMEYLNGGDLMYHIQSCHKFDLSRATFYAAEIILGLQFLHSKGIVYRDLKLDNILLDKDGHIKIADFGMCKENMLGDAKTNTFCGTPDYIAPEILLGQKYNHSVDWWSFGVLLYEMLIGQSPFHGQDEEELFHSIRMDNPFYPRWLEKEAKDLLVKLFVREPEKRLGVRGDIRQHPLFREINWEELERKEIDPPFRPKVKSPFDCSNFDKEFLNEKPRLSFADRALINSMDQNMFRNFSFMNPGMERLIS

IC50	SMILES
0.32 µM	CCOc1cc(Nc2c(C#N)cncc2-c2ccc(OC)c(OC)c2)c(Cl)cc1Cl [Compound 138, 4-[(2,4-dichloro-5-ethoxyphenyl)amino]-5-(3,4-dimethoxyphenyl)nicotinonitrile]
8 µM	CCCOc1cc(Nc2c(C#N)cncc2-c2ccc(OC)c(OC)c2)c(Cl)cc1Cl [Compound 139, 4-[(2,4-dichloro-5-propoxyphenyl)amino]-5-(3,4-dimethoxyphenyl)nicotinonitrile]
0.16 µM	COc1ccc(-c2cncc(C#N)c2Nc2cc(OCCO)c(Cl)cc2Cl)cc1OC [Compound 141, 4-{[2,4-dichloro-5-(2-hydroxyethoxy)phenyl]amino}-5-(3,4-dimethoxyphenyl)nicotinonitrile]
0.52 µM	COCCOc1cc(-c2cncc(C#N)c2Nc2cc(OC)c(Cl)cc2Cl)ccc1OC [Compound 148, 4-[(2,4-dichloro-5-methoxyphenyl)amino]-5-[4-methoxy-3-(2-methoxyethoxy)phenyl]nicotinonitrile]
7.09 µM	COCCOc1ccc(-c2cncc(C#N)c2Nc2cc(OC)c(Cl)cc2Cl)cc1OC [Compound 149, 4-[(2,4-dichloro-5-methoxyphenyl)amino]-5-[3-methoxy-4-(2-methoxyethoxy)phenyl]nicotinonitrile]
0.5 µM	COc1cc(Nc2c(C#N)cncc2-c2cccc(OCCCl)c2)c(Cl)cc1Cl [Compound 150, 5-[3-(2-chloroethoxy)phenyl]-4-[(2,4-dichloro-5-methoxyphenyl)amino]nicotinonitrile]
7.1 µM	COc1cc(Nc2c(C#N)cncc2-c2cccc(OCCN3CCCC3)c2)c(Cl)cc1Cl [Compound 151, 4-[(2,4-dichloro-5-methoxyphenyl)amino]-5-[3-(2-pyrrolidin-1-ylethoxy)phenyl]nicotinonitrile]

SMILES	IC50
CCCCOc1cc(Nc2c(C#N)cncc2-c2ccc(OC)c(OC)c2)c(Cl)cc1Cl [Compound 140, 4-[(5-butoxy-2,4-dichlorophenyl)amino]-5-(3,4-dimethoxyphenyl)nicotinonitrile]	9.75 µM

Target: T2, human PKCθ full length enzyme (Homo sapiens, UniProt Q04759)
T2 construct: human PKCθ full length enzyme (Panvera Cat# P2996); purchased Panvera P2996
Experiment: PKCθ IMAP assay
Assay type: biochemical
Conditions: full length enzyme 1 nM; ATP 6 μM; peptide 100 nM; FP readout; average value
Protocol: The materials used include the following: human PKCθ full length enzyme (Panvera Cat# P2996); substrate peptide: 5FAM-RFARKGSLRQKNV-OH (Molecular Devices, RP7032); ATP (Sigma Cat # A2383); DTT (Pierce, 20291); 5× kinase reaction buffer (Molecular Devices, R7209); 5× binding buffer A (Molecular Devices, R7282), 5× binding buffer B (Molecular Devices, R7209); IMAP Beads (Molecular Devices, R7284); and 384-well plates (Corning Costar, 3710).
The reaction buffer was prepared by diluting the 5× stock reaction buffer and adding DTT to obtain a concentration of 3.0 mM. The binding buffer was prepared by diluting the 5× binding buffer A. A master mix solution was prepared using a 90% dilution of the reaction buffer containing 2× ATP (12 uM) and 2× peptide (200 nm). Compounds were diluted in DMSO to 20× of the maximum concentration for the IC50 measurement. 27 μl of the master mix solution for each IC50 curve was added to the first column in a 384-well plate and 3 μl of 20× compound in DMSO was added to each well. The final concentration of compound was 2× and 10% DMSO. DMSO was added to the rest of the master mix to increase the concentration to 10%. 10 μl of the master mix containing 10% DMSO was added to the rest of the wells on the plate except the 2nd column. 20 μl was transferred from the first column to the 2nd column.
The compounds were serially diluted in 2:1 ratio starting from the 2nd column. A 2× (2 nM) PKCθ solution was made in the reaction buffer. 10 μl of the PKCθ solution was added to every well to achieve these final concentrations: PKCθ—1 nM; ATP—6 μM; peptide—100 nM; DMSO—5%. Samples were incubated for 25 minutes at room temperature. The binding reagent was prepared by diluting the beads in 1× binding buffer to 800:1. 50 μl of the binding reagent was added to every well and incubated for 20 minutes. FP was measured using Envision2100 (PerkinElmer Life Sciences). Wells with no ATPs and wells with no enzymes were used as controls.

T2 sequence (Q04759 whole entry): as above

IC50	SMILES
1.95 µM	COc1ccc(-c2cncc(C#N)c2Nc2cc(OC)c(OC)c(OC)c2)cc1OC [Compound 119, 5-(3,4-dimethoxyphenyl)-4-[(3,4,5-trimethoxyphenyl)amino]nicotinonitrile]
0.1 µM	COc1ccc(-c2cncc(C#N)c2Nc2cc(OCCO)c(Cl)cc2Cl)cc1OC [Compound 141, 4-{[2,4-dichloro-5-(2-hydroxyethoxy)phenyl]amino}-5-(3,4-dimethoxyphenyl)nicotinonitrile]

Target: T3, purified recombinant active kinase domain of full length PKC theta (amino acids 362-706) (Homo sapiens, UniProt Q04759)
T3 construct: active kinase domain of full length PKC theta (amino acids 362-706)
Experiment: Radioactive kinase assay for inhibition of the active kinase domain (KD) of PKCθ
Assay type: biochemical
Conditions: radioactive (ATP γ P33) assay, average value
Protocol: A Radioactive Kinase Assay for Inhibition of the Active Kinase Domain (KD) of PKCθ
as §1

T3 sequence (Q04759 362-706): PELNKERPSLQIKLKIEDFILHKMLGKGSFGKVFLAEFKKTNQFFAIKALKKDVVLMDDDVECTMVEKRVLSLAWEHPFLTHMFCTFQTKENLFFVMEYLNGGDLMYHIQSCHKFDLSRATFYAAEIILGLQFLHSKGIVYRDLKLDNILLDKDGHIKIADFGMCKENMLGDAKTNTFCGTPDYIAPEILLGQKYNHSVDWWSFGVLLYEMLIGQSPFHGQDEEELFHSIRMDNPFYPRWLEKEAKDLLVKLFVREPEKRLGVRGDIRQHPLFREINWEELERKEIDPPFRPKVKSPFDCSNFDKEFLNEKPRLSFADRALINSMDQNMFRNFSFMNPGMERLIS

IC50	SMILES
6.87 µM	COc1ccc(-c2cncc(C#N)c2Nc2cccc(Cl)c2)cc1OC [Compound 101, 4-[(3-chlorophenyl)amino]-5-(3,4-dimethoxyphenyl)nicotinonitrile]
0.6 µM	COc1ccc(-c2cncc(C#N)c2Nc2cc(F)ccc2F)cc1OC [Compound 104, 4-[(2,5-difluorophenyl)amino]-5-(3,4-dimethoxyphenyl)nicotinonitrile]
10.6 µM	COc1ccc(Nc2c(C#N)cncc2-c2ccc(OC)c(OC)c2)cc1OC [Compound 105, 5-(3,4-dimethoxyphenyl)-4-[(3,4-dimethoxyphenyl)amino]nicotinonitrile]
0.84 µM	COc1ccc(-c2cncc(C#N)c2Nc2ccc(Cl)cc2F)cc1OC [Compound 106, 4-[(4-chloro-2-fluorophenyl)amino]-5-(3,4-dimethoxyphenyl)nicotinonitrile]
2.91 µM	COc1ccc(-c2cncc(C#N)c2Nc2ccc(F)c(Cl)c2)cc1OC [Compound 107, 4-[(3-chloro-4-fluorophenyl)amino]-5-(3,4-dimethoxyphenyl)nicotinonitrile]
2.77 µM	COc1ccc(-c2cncc(C#N)c2Nc2ccc(Cl)cc2)cc1OC [Compound 108, 4-[(4-chlorophenyl)amino]-5-(3,4-dimethoxyphenyl)nicotinonitrile]
0.81 µM	COc1ccc(-c2cncc(C#N)c2Nc2ccc(C)cc2C)cc1OC [Compound 109, 5-(3,4-dimethoxyphenyl)-4-[(2,4-dimethylphenyl)amino]nicotinonitrile]
1.16 µM	COc1ccc(Nc2c(C#N)cncc2-c2ccc(OC)c(OC)c2)cc1 [Compound 110, 5-(3,4-dimethoxyphenyl)-4-[(4-methoxyphenyl)amino]nicotinonitrile]
1.41 µM	COc1ccc(Nc2c(C#N)cncc2-c2ccc(OC)c(OC)c2)cc1Cl [Compound 111, 4-[(3-chloro-4-methoxyphenyl)amino]-5-(3,4-dimethoxyphenyl)nicotinonitrile]
3.6 µM	COc1ccc(-c2cncc(C#N)c2Nc2cc(Cl)ccc2Cl)cc1OC [Compound 113, 4-[(2,5-dichlorophenyl)amino]-5-(3,4-dimethoxyphenyl)nicotinonitrile]
0.4 µM	COc1ccc(Nc2c(C#N)cncc2-c2ccc(OC)c(OC)c2)c(C)c1 [Compound 114, 5-(3,4-dimethoxyphenyl)-4-[(4-methoxy-2-methylphenyl)amino]nicotinonitrile]
3.2 µM	COc1ccc(Cl)cc1Nc1c(C#N)cncc1-c1ccc(OC)c(OC)c1 [Compound 116, 4-[(5-chloro-2-methoxyphenyl)amino]-5-(3,4-dimethoxyphenyl)nicotinonitrile]
13.8 µM	COc1ccc(-c2cncc(C#N)c2Nc2cccc(OCc3ccccc3)c2)cc1OC [Compound 117, 4-{[3-(benzyloxy)phenyl]amino}-5-(3,4-dimethoxyphenyl)nicotinonitrile]
4.44 µM	COc1ccc(-c2cncc(C#N)c2Nc2ccc(C)cc2)cc1OC [Compound 118, 5-(3,4-dimethoxyphenyl)-4-[(4-methylphenyl)amino]nicotinonitrile]
11.7 µM	COc1ccc(-c2cncc(C#N)c2Nc2cc(OC)c(OC)c(OC)c2)cc1OC [Compound 119, 5-(3,4-dimethoxyphenyl)-4-[(3,4,5-trimethoxyphenyl)amino]nicotinonitrile]
1040 µM	COc1ccc(-c2cncc(C#N)c2Nc2ccc(OCc3cccc(C#N)c3)c(Cl)c2)cc1OC [Compound 122, 4-({3-chloro-4-[(3-cyanobenzyl)oxy]phenyl}amino)-5-(3,4-dimethoxyphenyl)nicotinonitrile]
38 µM	COc1ccc(-c2cncc(C#N)c2Nc2ccc(OCc3cccs3)c(Cl)c2)cc1OC [Compound 123, 4-{[3-chloro-4-(thien-2-ylmethoxy)phenyl]amino}-5-(3,4-dimethoxyphenyl)nicotinonitrile]
0.34 µM	COc1ccc(-c2cncc(C#N)c2Nc2ccc(Cl)cc2Cl)cc1OC [Compound 126, 4-[(2,4-dichlorophenyl)amino]-5-(3,4-dimethoxyphenyl)nicotinonitrile]
5 µM	COc1ccc(-c2cncc(C#N)c2Nc2cccc(Br)c2)cc1OC [Compound 135, 4-[(3-bromophenyl)amino]-5-(3,4-dimethoxyphenyl)nicotinonitrile]
214 µM	N#Cc1cncc(-c2cccc([N+](=O)[O-])c2)c1Nc1ccc(OCc2ccccc2)c(Cl)c1 [Compound 142, 4-{[4-(benzyloxy)-3-chlorophenyl]amino}-5-(3-nitrophenyl)nicotinonitrile]
158 µM	N#Cc1cncc(-c2cccc([N+](=O)[O-])c2)c1Nc1ccc(F)c(Cl)c1 [Compound 144, 4-[(3-chloro-4-fluorophenyl)amino]-5-(3-nitrophenyl)nicotinonitrile]
3.85 µM	N#Cc1cncc(-c2ccccc2[N+](=O)[O-])c1Nc1ccc(F)c(Cl)c1 [Compound 146, 4-[(3-chloro-4-fluorophenyl)amino]-5-(2-nitrophenyl)nicotinonitrile]
